“Also recorded” adds a separate entry of the source. Numbered stars: 1 amine (or outer) side, 2 acyl side, 3 side chain; on linkers, the order of the positions; unused ones are H or OH. Bridge positions count the residues as written; N and C are the ends. Square brackets hold non-standard residues; d marks the D form. Ends that are not written are not given here. Peptide text beside a SMILES is read from it. I, II: the chains in the order shown. * marks the point of attachment. ξ: configuration not given here. X2 = CN(C)c1ccc2c(c1)Oc1cc(N(C)C)ccc1C21OC(=O)c2ccc(C(=O)*)cc21; X1 = NC(=O)NC(COCCCN[*:1])(COCCCN[*:2])COCCCN[*:3]; NBD = O=[N+]([O-])c1ccc(*)c2nonc12; dDab = NCC[C@@H](N)C(=O)O; Nle = CCCC[C@H](N)C(=O)O; Dab = NCC[C@H](N)C(=O)O; AEEA = NCCOCCOCC(=O)O; ξDab = NCCC(N)C(=O)O; ξK = NCCCCC(N)C(=O)O; ξV = CC(C)C(N)C(=O)O; Ahx = NCCCCCC(=O)O; ξP = O=C(O)C1CCCN1; ξA = CC(N)C(=O)O
Columns and labels:
[1] = Stability in saline or ALI BALF by MALDI-TOF MS / FTMS; conditions: incubated 30 minutes
Procedure: Secondly we assessed stability of the probes in BALF from patients with ALI by FTMS and MALDI-TOF MS analysis. NBD-UBINle, NBD-UBIdend and NBD-PMX were incubated for 30 minutes with BALF (FIG. 13).
In vitro labelling was assessed on benchtop confocal in the presence of compound with bacteria and labelling was compared to NBD-UBINle which served as a reference control for bacterial labelling. […] For the ex vivo and in vivo ovine lung experiments each compound was assessed in a control lung segment (instilled with 2 ml PBS) or a bacterial segment (instilled with 2 ml of 2 optical density of bacteria). Following bacterial instillation, the compound was administered to the segment of interest and this was imaged by probe based FCFM.
Probe was added to saline or pooled BALF from patients with ALI incubated for 30 minutes. A ZipTip (C-18, 0.2 μL) with 5 μL MeCN (with 0.1% TFA as an additive) followed by 20 μL of H2O was washed. The ZipTip was loaded with the sample, washed and eluted into 5 μL of 80% aq. MeCN (with 0.1% TFA as an additive). The sample was analysed by MALDI-TOF (PerSeptive Biosystems Voyager DE™STR MALDI-TOF mass spectrometer (Applied Biosystems, Foster City, Calif.)).

[2] = target: T1, human neutrophil elastase (HNE) (Homo sapiens, UniProt P08246); test: Elastase dependent bacterial labelling in co-culture of bacteria and neutrophils; type: cell-based; conditions: for labelling of activated neutrophils: TAMRA signal; for elastase dependent bacterial labelling: bacteria with neutrophils
T1 construct: endogenous in cells; host or cells: isolated human neutrophils (co-culture with MSSA or P. aeruginosa)
T1 sequence (P08246 30-267): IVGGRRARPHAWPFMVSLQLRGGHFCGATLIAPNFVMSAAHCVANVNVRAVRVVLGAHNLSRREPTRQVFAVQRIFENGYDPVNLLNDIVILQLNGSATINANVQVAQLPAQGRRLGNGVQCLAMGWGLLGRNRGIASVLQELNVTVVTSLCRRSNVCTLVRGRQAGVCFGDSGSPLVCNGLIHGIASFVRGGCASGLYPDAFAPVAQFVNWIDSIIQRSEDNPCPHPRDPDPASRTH
Source text: A first example of elastase sensitive probes (shown schematically in FIG. 16A) comprises methyl red (acting as a dark quencher) connected via the peptide sequence AAPV (SEQ. ID NO: 9). (acting as the enzyme cleavable peptide sequence of the cleavable linker) to 7-nitrobenz-2-oxa-1,3-diazole (NBD) and the ubiquicidin fragment UBI29-41 (together acting as the probe element). Accordingly, the NBD fluorescence is quenched by the methyl red and no fluorescent signal will be observed (i.e. the methyl red and NBD are acting as a FRET pair) and therefore, whether or not the probe is bound to any bacteria that may be present in the target area via UBI29-41, no signal is observed using confocal microscopy.
When the probe is in the presence of human neutrophil elastase (HNE), such as in inflamed tissue, HNE cleaves the peptide sequence of the linker, to thereby free the probe element from the methyl red quencher. Accordingly, the NBD fluorophore is no longer quenched and produces a fluorescent signal. In addition, due to the environmental sensitivity of the NBD, the signal produced is greatly amplified if the NBD is in a hydrophobic environment, such as within a cell membrane.

[3] = target: elastase (Homo sapiens, UniProt P08246); conditions: ex 525 nm, Em 580 nm

CCCC[C@H](NC(=O)[C@H](CCCNC(=N)N)NC(=O)[C@H](CCCNC(=N)N)NC(=O)[C@H](CCCCN)NC(=O)[C@H](C)NC(=O)[C@H](CCCNC(=N)N)NC(=O)CNC(=O)[C@@H](NC(=O)CCCCCNc1ccc([N+](=O)[O-])c2nonc12)[C@@H](C)O)C(=O)N[C@@H](CCC(N)=O)C(=O)N[C@@H](Cc1ccc(O)cc1)C(=O)N[C@@H](CC(N)=O)C(=O)N[C@@H](CCCNC(=N)N)C(=O)N[C@@H](CCCNC(=N)N)C(N)=O [NBD-UBINle] ({NBD-Ahx}-TGRAKRR[Nle]QYNRR-NH2; N-terminus and C-terminus assumed)
stability in BALF from patients with ALI [1]: degradation; also recorded: instability in lavage fluid

CC(C)C[C@H]1NC(=O)[C@@H](Cc2ccccc2)NC(=O)[C@@H](CCN)NC(=O)C(NC(=O)[C@H](CCN)NC(=O)[C@@H](NC(=O)COCCOCCNC(=O)C(CCCCNc2ccc([N+](=O)[O-])c3nonc23)NC(=O)C(NC(=O)C2CCCN2C(=O)C(C)NC(=O)C(C)NC(=O)c2ccc3c(c2)C2(OC3=O)c3ccc(N(C)C)cc3Oc3cc(N(C)C)ccc32)C(C)C)[C@@H](C)O)CCNC(=O)[C@@H]([C@H](C)O)NC(=O)[C@H](CCN)NC(=O)[C@H](CCN)NC1=O (stereo partly drawn) [TAMRA-AAPV-NBD-PMX] (X2-[ξA][ξA][ξP][ξV][ξK](NBD)[AEEA]T[Dab][ξDab][dDab][dF][dL][Dab][Dab][dT]; lactam 9-C)
bacterial labelling with unactivated neutrophils ([2]; P. aeruginosa): no labelling in the presence of unactivated neutrophils
labelling of activated neutrophils [2]: labelling of activated neutrophils in an elastase independent manner
labelling of activated neutrophils ([2]; listed as Example 2): labelled by the TAMRA moiety
elastase dependent bacterial labelling [2]: bacterial labelling in an elastase dependent manner
elastase dependent bacterial labelling ([2]; listed as Example 2): the bacteria are labelled by the probe element
TAMRA fluorescence increase with elastase inhibitor [3]: inhibited with an elastase inhibitor
fluorescence of TAMRA following cleavage ([3]; elastase): increase in fluorescence

Example 1: methyl red dark quencher connected via AAPV to NBD and ubiquicidin fragment UBI29-41 (also: methyl red quencher attached, side not given here, NBD and ubiquicidin fragment UBI29-41 attached, side not given here)
elastase dependent bacterial labelling [2]: cleaved by neutrophil derived HNE and to label bacteria
bacterial labelling with elastase inhibitor ([2]; sivelestat added to the medium): no labelling was observed

I: {NBD-AEEA}-TGRAKRR[Nle]QYNRR[AEEA] / II: {NBD-AEEA}-TGRAKRR[Nle]QYNRR[AEEA] / III: {NBD-AEEA}-TGRAKRR[Nle]QYNRR[AEEA] (linker I:C-II:C-III:C via X1) [NBD-UBIdend]
stability in BALF from patients with ALI [1]: remains stable; also recorded: demonstrate stability
